Values quoted from earlier work, collected in patent US20260272898A1 (Bayer Aktiengesellschaft, priority 2024, published 2026).

Conditions: in vivo

half-life: short
Structure (SMILES): CCOc1ncc(C)c2c1[C@H](c1ccc(C#N)cc1OC)C(C(N)=O)=C(C)N2 [finerenone, (4S)-4-(4-cyano-2-methoxyphenyl)-5-ethoxy-2,8-dimethyl-1,4-dihydro-1,6-naphthyridine-3-carboxamide]
